Experimental data taken from US11590139B2, “Substituted aminopurine compounds, compositions thereof, and methods of treatment therewith” (Signal Pharmaceuticals, LLC, priority 2014, dated 2023).
pIC50: −log10 of the molar value.

Tested on: Lox-IMVI melanoma cell line
Assay: Lox-IMVI anti-proliferative assay (growth inhibition, Cell Titer-Glo)
Assay type: cell-based, human
Details: Homo sapiens; Lox-IMVI melanoma cell line, anti-proliferative assay; read-out: Activity (IC50 activity level)
Outline: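 Cells grown in RPMI + 10% FBS were exposed to compound at 0.5 nM to 10 μM (10-point, 3-fold dilution, duplicate, 0.2% DMSO final) for 72 h at 37 °C, 5% CO2. Viability was read by ATP luminescence at t0 and 72 h. IC50 came from a four-parameter logistic fit normalized to DMSO control.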

Row | SMILES | pIC50
1 | NC(=O)[C@H]1CC[C@@H](n2c(Nc3c(Cl)cc(Cl)cc3Cl)nc3cnc(NC[C@@H]4CCCC[C@@H]4O)nc32)CC1 [Example 654, (1R,4s)-4-(2-(((1S,2S)-2-hydroxycyclohexyl)methylamino)-8-(2,4,6-trichlorophenylamino)-9H-purin-9-yl)cyclohexanecarboxamide] | < 6.00
2 | NC(=O)[C@H]1CC[C@@H](n2c(Nc3c(F)cc(Cl)cc3Cl)nc3cnc(NC[C@@H]4CCCC[C@@H]4O)nc32)CC1 [Example 655, (1R,4s)-4-(8-(2,4-dichloro-6-fluorophenylamino)-2-(((1S,2S)-2-hydroxycyclohexyl)methylamino)-9H-purin-9-yl)cyclohexanecarboxamide] | < 6.00
3 | NC(=O)[C@H]1CC[C@@H](n2c(Nc3c(Cl)cc(F)cc3Cl)nc3cnc(NC[C@@H]4CCCC[C@@H]4O)nc32)CC1 [Example 656, (1R,4s)-4-(8-(2,6-dichloro-4-fluorophenylamino)-2-(((1S,2S)-2-hydroxycyclohexyl)methylamino)-9H-purin-9-yl)cyclohexanecarboxamide] | < 6.00
4 | NC(=O)[C@H]1CC[C@@H](n2c(Nc3c(F)cc(Cl)cc3F)nc3cnc(NC[C@@H]4CCCC[C@@H]4O)nc32)CC1 [Example 657, (1R,4s)-4-(8-(4-chloro-2,6-difluorophenylamino)-2-(((1S,2S)-2-hydroxycyclohexyl)methylamino)-9H-purin-9-yl)cyclohexanecarboxamide] | < 6.00
5 | N#Cc1cc(F)c(Nc2nc3cnc(NC[C@@H]4CCCC[C@@H]4O)nc3n2[C@H]2CC[C@@H](C(N)=O)CC2)c(Cl)c1 [Example 658, (1R,4s)-4-(8-(2-chloro-4-cyano-6-fluorophenylamino)-2-(((1S,2S)-2-hydroxycyclohexyl)methylamino)-9H-purin-9-yl)cyclohexanecarboxamide] | < 6.00
6 | N#Cc1cc(Cl)c(Nc2nc3cnc(NC[C@@H]4CCCC[C@@H]4O)nc3n2[C@H]2CC[C@@H](C(N)=O)CC2)c(Cl)c1 [Example 659, (1R,4s)-4-(8-(2,6-dichloro-4-cyanophenylamino)-2-(((1S,2S)-2-hydroxycyclohexyl)methylamino)-9H-purin-9-yl)cyclohexanecarboxamide] | < 6.00
7 | NC(=O)[C@H]1CC[C@@H](n2c(Nc3c(F)cc(F)cc3Cl)nc3cnc(NC[C@@H]4CCCC[C@H]4O)nc32)CC1 [Example 660, (1R,4s)-4-(8-(2-chloro-4,6-difluorophenylamino)-2-(((1S,2R)-2-hydroxycyclohexyl)methylamino)-9H-purin-9-yl)cyclohexanecarboxamide] | < 6.00
8 | NC(=O)[C@H]1CC[C@@H](n2c(Nc3c(Cl)cc(Cl)cc3Cl)nc3cnc(NC[C@@H]4CCCC[C@H]4O)nc32)CC1 [Example 661, (1R,4s)-4-(2-(((1S,2R)-2-hydroxycyclohexyl)methylamino)-8-(2,4,6-trichlorophenylamino)-9H-purin-9-yl)cyclohexanecarboxamide] | < 6.00
9 | NC(=O)[C@H]1CC[C@@H](n2c(Nc3c(F)cc(Cl)cc3Cl)nc3cnc(NC[C@@H]4CCCC[C@H]4O)nc32)CC1 [Example 662, (1R,4s)-4-(8-(2,4-dichloro-6-fluorophenylamino)-2-(((1S,2R)-2-hydroxycyclohexyl)methylamino)-9H-purin-9-yl)cyclohexanecarboxamide] | < 6.00
10 | NC(=O)[C@H]1CC[C@@H](n2c(Nc3c(F)cc(Cl)cc3F)nc3cnc(NC[C@@H]4CCCC[C@H]4O)nc32)CC1 [Example 663, (1R,4s)-4-(8-(4-chloro-2,6-difluorophenylamino)-2-(((1S,2R)-2-hydroxycyclohexyl)methylamino)-9H-purin-9-yl)cyclohexanecarboxamide] | < 6.00
11 | N#Cc1cc(F)c(Nc2nc3cnc(NC[C@@H]4CCCC[C@H]4O)nc3n2[C@H]2CC[C@@H](C(N)=O)CC2)c(Cl)c1 [Example 664, (1R,4s)-4-(8-(2-chloro-4-cyano-6-fluorophenylamino)-2-(((1S,2R)-2-hydroxycyclohexyl)methylamino)-9H-purin-9-yl)cyclohexanecarboxamide] | < 6.00
12 | N#Cc1cc(Cl)c(Nc2nc3cnc(NC[C@@H]4CCCC[C@H]4O)nc3n2[C@H]2CC[C@@H](C(N)=O)CC2)c(Cl)c1 [Example 665, (1R,4s)-4-(8-(2,6-dichloro-4-cyanophenylamino)-2-(((1S,2R)-2-hydroxycyclohexyl)methylamino)-9H-purin-9-yl)cyclohexanecarboxamide] | < 6.00
13 | C[C@]1(C(N)=O)CC[C@@H](n2c(Nc3c(Cl)cc(C#N)cc3Cl)nc3cnc(NC4CC(F)(F)C4)nc32)CC1 [Example 666, (1s,4s)-4-(8-(2,6-dichloro-4-cyanophenylamino)-2-(3,3-difluorocyclobutylamino)-9H-purin-9-yl)-1-methylcyclohexanecarboxamide] | > 6.60
14 | NC(=O)[C@H]1CC[C@@H](n2c(Nc3c(F)cc(Cl)cc3Cl)nc3cnc(NC4CCC(N5C(=O)CCC5=O)CC4)nc32)CC1 (stereo partly drawn) [Example 667, (1s,4s)-4-(8-(2,4-dichloro-6-fluorophenylamino)-2-(4-(2,5-dioxopyrrolidin-1-yl)cyclohexylamino)-9H-purin-9-yl)cyclohexanecarboxamide] | < 6.00
15 | N#Cc1cc(Cl)c(Nc2nc3cnc(NC4CCC(N5C(=O)CCC5=O)CC4)nc3n2[C@H]2CC[C@@H](C(N)=O)CC2)c(Cl)c1 (stereo partly drawn) [Example 668, (1s,4s)-4-(8-(2,6-dichloro-4-cyanophenylamino)-2-(4-(2,5-dioxopyrrolidin-1-yl)cyclohexylamino)-9H-purin-9-yl)cyclohexanecarboxamide] | < 6.00
16 | N#Cc1cc(F)c(Nc2nc3cnc(N[C@H]4CCOC[C@H]4F)nc3n2[C@H]2CC[C@@H](C(N)=O)CC2)c(F)c1 [Example 669, (1R,4s)-4-(8-(4-cyano-2,6-difluorophenylamino)-2-((3S,4S)-3-fluorotetrahydro-2H-pyran-4-ylamino)-9H-purin-9-yl)cyclohexanecarboxamide] | 6.00 to 6.30
17 | N#Cc1cc(F)c(Nc2nc3cnc(N[C@H]4CCOC[C@H]4F)nc3n2[C@H]2CC[C@@H](C(N)=O)CC2)c(Cl)c1 [Example 670, (1R,4s)-4-(8-(2-chloro-4-cyano-6-fluorophenylamino)-2-((3S,4S)-3-fluorotetrahydro-2H-pyran-4-ylamino)-9H-purin-9-yl)cyclohexanecarboxamide] | > 6.60
18 | NC(=O)[C@H]1CC[C@@H](n2c(Nc3c(F)cc(Cl)cc3F)nc3cnc(N[C@@H]4CCOC[C@H]4F)nc32)CC1 [Example 671, (1S,4s)-4-(8-(4-chloro-2,6-difluorophenylamino)-2-((3S,4R)-3-fluorotetrahydro-2H-pyran-4-ylamino)-9H-purin-9-yl)cyclohexanecarboxamide] | > 6.60
19 | NC(=O)[C@H]1CC[C@@H](n2c(Nc3c(F)cc(Cl)cc3F)nc3cnc(N[C@H]4CCOC[C@H]4F)nc32)CC1 [Example 672, (1R,4s)-4-(8-(4-chloro-2,6-difluorophenylamino)-2-((3S,4S)-3-fluorotetrahydro-2H-pyran-4-ylamino)-9H-purin-9-yl)cyclohexanecarboxamide] | > 6.60
20 | C[C@]1(C(N)=O)CC[C@@H](n2c(Nc3c(F)cc(F)cc3Cl)nc3cnc(NC4CCOCC4)nc32)CC1 [Example 673, (1s,4s)-4-(8-(2-chloro-4,6-difluorophenylamino)-2-(tetrahydro-2H-pyran-4-ylamino)-9H-purin-9-yl)-1-methylcyclohexanecarboxamide] | > 6.60
21 | C[C@]1(C(N)=O)CC[C@@H](n2c(Nc3c(F)cc(Cl)cc3Cl)nc3cnc(NC4CCOCC4)nc32)CC1 [Example 674, (1s,4s)-4-(8-(2,4-dichloro-6-fluorophenylamino)-2-(tetrahydro-2H-pyran-4-ylamino)-9H-purin-9-yl)-1-methylcyclohexanecarboxamide] | > 6.60
22 | C[C@]1(C(N)=O)CC[C@@H](n2c(Nc3c(Cl)cc(F)cc3Cl)nc3cnc(NC4CCOCC4)nc32)CC1 [Example 675, (1s,4s)-4-(8-(2,6-dichloro-4-fluorophenylamino)-2-(tetrahydro-2H-pyran-4-ylamino)-9H-purin-9-yl)-1-methylcyclohexanecarboxamide] | > 6.60
23 | NC(=O)[C@H]1CC[C@@H](n2c(Nc3c(F)cc(Cl)cc3Cl)nc3cnc(NC4CCC(c5ncno5)CC4)nc32)CC1 (stereo partly drawn) [Example 676, (1s,4s)-4-(2-(4-(1,2,4-oxadiazol-5-yl)cyclohexylamino)-8-(2,4-dichloro-6-fluorophenylamino)-9H-purin-9-yl)cyclohexanecarboxamide] | < 6.00
24 | NC(=O)[C@H]1CC[C@@H](n2c(Nc3c(F)cc(F)cc3Cl)nc3cnc(NC4CCC(c5ncno5)CC4)nc32)CC1 (stereo partly drawn) [Example 677, (1s,4s)-4-(2-(4-(1,2,4-oxadiazol-5-yl)cyclohexylamino)-8-(2-chloro-4,6-difluorophenylamino)-9H-purin-9-yl)cyclohexanecarboxamide] | < 6.00
25 | NC(=O)[C@H]1CC[C@@H](n2c(Nc3c(Cl)cc(Cl)cc3Cl)nc3cnc(NC4CCC(c5ncno5)CC4)nc32)CC1 (stereo partly drawn) [Example 678, (1s,4s)-4-(2-(4-(1,2,4-oxadiazol-5-yl)cyclohexylamino)-8-(2,4,6-trichlorophenylamino)-9H-purin-9-yl)cyclohexanecarboxamide] | < 6.00
26 | NC(=O)[C@H]1CC[C@@H](n2c(Nc3c(Cl)cc(F)cc3Cl)nc3cnc(NC4CCC(c5ncno5)CC4)nc32)CC1 (stereo partly drawn) [Example 679, (1s,4s)-4-(2-(4-(1,2,4-oxadiazol-5-yl)cyclohexylamino)-8-(2,6-dichloro-4-fluorophenylamino)-9H-purin-9-yl)cyclohexanecarboxamide] | < 6.00
27 | N#Cc1cc(F)c(Nc2nc3cnc(NC4CCC(c5ncno5)CC4)nc3n2[C@H]2CC[C@@H](C(N)=O)CC2)c(Cl)c1 (stereo partly drawn) [Example 680, (1s,4s)-4-(2-(4-(1,2,4-oxadiazol-5-yl)cyclohexylamino)-8-(2-chloro-4-cyano-6-fluorophenylamino)-9H-purin-9-yl)cyclohexanecarboxamide] | < 6.00
